Where a SMILES comes first, the peptide text is derived from it.
Assays:
[1] = system: MARK4-mediated tau phosphorylation; assay: Tau phosphorylation in brain of mouse PS19 transgenic tauopathy model (P301S mutant human tau); format: in vivo; settings: PS19 mice, IP 40 mg/kg/day for 5 days, FIG. 10
Experimental: Three PS19 transgenic mice (ID number: 9, 10, 11) were subjected to daily IP injection with MKI-TAT peptide (dissolved in 100% DMSO, 40 mg/kg/day) for 5 days. At the end of 5-day injection, the animals were anesthetized with 4% isoflurine and decapitated. The brain tissues were collected immediately, flash-frozen in liquid nitrogen and stored at −80° C. For analysis of effect of MKI-TAT on tau phosphorylation, brain tissues were homogenized in lysis buffer, separated on SDS-PAGE, and probed with the indicated antibodies.
Three PS19 transgenic mice (ID number: 9, 10, 11) were subjected to daily intraperitoneal injection with MKI-TAT peptide (dissolved in 100% DMSO, 40 mg/kg/day) for 5 days. At the end of the 5-day injection period, the animals were anesthetized with 4% isoflurine and decapitated. The brain tissues were collected immediately, flash-frozen in liquid nitrogen, and stored at −80° C. For analysis of the effects of MKI-TAT on tau phosphorylation, brain tissues were homogenized in lysis buffer, separated on SDS-PAGE, and probed with antibodies against pS262-tau, PHF-1, tau, and actin.

[2] = biological target: T1, Human MARK4 (Homo sapiens, UniProt Q96L34); assay: In vitro kinase assay of MARK4 phosphorylating tau (Western blot); format: biochemical; settings: human MARK4 and tau affinity-purified from HEK293 cells, FIG. 7
T1 construct: made in house; host or cells: HEK293 cells
T1 sequence (Q96L34 1-752): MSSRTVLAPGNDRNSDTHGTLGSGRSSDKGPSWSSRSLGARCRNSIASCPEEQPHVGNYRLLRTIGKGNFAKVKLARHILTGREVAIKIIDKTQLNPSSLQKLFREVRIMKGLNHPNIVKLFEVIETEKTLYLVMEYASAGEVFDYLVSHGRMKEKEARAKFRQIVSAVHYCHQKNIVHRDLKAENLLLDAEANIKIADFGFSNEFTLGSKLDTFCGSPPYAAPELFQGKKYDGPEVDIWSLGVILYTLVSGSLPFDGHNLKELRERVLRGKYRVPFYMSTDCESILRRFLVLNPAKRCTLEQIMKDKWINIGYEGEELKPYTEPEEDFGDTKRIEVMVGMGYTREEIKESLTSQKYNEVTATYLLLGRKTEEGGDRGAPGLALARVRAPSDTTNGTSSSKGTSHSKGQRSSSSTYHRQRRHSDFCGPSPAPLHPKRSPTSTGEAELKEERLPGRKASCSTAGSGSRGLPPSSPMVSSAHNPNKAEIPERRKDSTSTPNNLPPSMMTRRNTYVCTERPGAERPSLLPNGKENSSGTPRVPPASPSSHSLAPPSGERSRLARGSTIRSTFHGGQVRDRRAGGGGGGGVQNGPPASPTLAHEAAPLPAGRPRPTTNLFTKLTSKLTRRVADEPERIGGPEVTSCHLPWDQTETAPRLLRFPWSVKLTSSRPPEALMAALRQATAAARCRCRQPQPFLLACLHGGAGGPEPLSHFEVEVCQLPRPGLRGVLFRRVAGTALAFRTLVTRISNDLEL
Description: Both human MARK4 and tau proteins were expressed in HEK293 cells and affinity-purified by immunoprecipitation. After in vitro kinase reaction in the presence or absence of the peptides, the reaction mixtures were separated on SDS-PAGE to separate the proteins, and the levels of total tau and phospho-tau generated by MARK4 were detected by Western blot analysis. The TAT peptide was used as a negative control. Note the inhibition of MARK4-mediated tau phosphorylation by both TAT-MKI and MKI-TAT.
We next tested the ability of the TAT-MKI and MKI-TAT fusions to inhibit the activity of MARK4 kinase in phosphorylating the tau protein (FIG. 7). Human MARK4 and tau proteins were expressed in HEK293 cells and affinity-purified by immunoprecipitation. In vitro kinase reactions were performed in the presence or absence of the TAT-MKI and MKI-TAT fusion peptides and the levels of total tau and phospho-tau generated by MARK4 were detected by Western blot analysis. The TAT peptide was used as a negative control. Both the TAT-MKI and MKI-TAT fusion peptides inhibited MARK4-mediated tau phosphorylation in vitro.

[3] = system: 5×FAD mouse; assay: Activity Chamber assay in 5×FAD Alzheimer's disease mouse model; format: in vivo; settings: 5×FAD mice, daily IP for 5 days, FIGS. 11A-11H
Description: The 5×FAD mouse, a well-accepted transgenic model of Alzheimer's disease, was used to test the therapeutic efficacy of MKI-TAT in vivo. The 5×FAD model mouse overexpresses APP with the K670N/M671L (Swedish mutation), I716V (Florida mutation), and V717I (London mutation), and PS1 with the M146L and L286V mutations. […] These defects were rescued by the daily delivery of MKI-TAT through IP for 5 days. At the end of the 5 day treatment, the wild type animals treated with vehicle, and 5×FAD mice treated with vehicle or MKI-TAT were subjected to the Activity Chamber assay. Total ambulatory count (FIG. 11A), total stereotypic count (FIG. 11B), total vertical count (FIG. 11C), total session time (FIG. 11D), total ambulatory time (FIG. 11E), total stereotypic time (FIG. 11F), total vertical time (FIG. 11G), and total zone entry (FIG. 11H) were evaluated.
Activity Chamber assays were performed to evaluate the effects of MKI-TAT in rescuing motor behavioral defects in an Alzheimer's disease mouse model. The 5×FAD mouse, a well-accepted transgenic model of Alzheimer's disease, was used to test the therapeutic efficacy of MKI-TAT in vivo. The 5×FAD model mouse overexpresses APP with the K670N/M671L (Swedish mutation), I716V (Florida mutation), and V717I (London mutation), and PS1 with the M146L and L286V mutations. […]

`CC(=O)NCC(=O)N[C@@H](Cc1ccccc1)C(=O)N1CCC[C@H]1C(=O)N[C@@H](CC(C)C)C(=O)N[C@@H](CCCCN)C(=O)N[C@@H](CCCNC(=N)N)C(=O)N[C@@H](Cc1c[nH]cn1)C(=O)N[C@@H](CC(=O)O)C(=O)NCC(=O)N[C@H](C(=O)N[C@@H](CC(=O)O)C(=O)N[C@@H](CC(=O)O)C(=O)N[C@@H](CC(C)C)C(=O)N[C@@H](CO)C(=O)N[C@@H](CCCCN)C(=O)N[C@H](C(=O)NCC(=O)NCC(=O)N[C@@H](Cc1ccc(O)cc1)C(=O)NCC(=O)N[C@@H](CCCNC(=N)N)C(=O)N[C@@H](CCCCN)C(=O)N[C@@H](CCCCN)C(=O)N[C@@H](CCCNC(=N)N)C(=O)N[C@@H](CCCNC(=N)N)C(=O)N[C@@H](CCC(N)=O)C(=O)N[C@@H](CCCNC(=N)N)C(=O)N[C@@H](CCCNC(=N)N)C(=O)N[C@@H](CCCNC(=N)N)C(N)=O)C(C)C)C(C)C` [MKI-TAT] (Ac-GFPLKRHDGVDDLSKVGGYGRKKRRQRRR-NH2) was tested, and the “Phospho-tau recognized by the PHF-1 antibody in brain” value [1] was “reduced”, the “level of MARK4-mediated tau phosphorylation recognized by the pS262-tau antibody in brain” value [1] was “significantly reduced” and the “total tau level in brain” value [1] was “largely unchanged”. For the same compound, the “MARK4-mediated tau phosphorylation in vitro” value [2] was “inhibited” and the “motor behavioral defects (time in zones, average velocity, rearing time, session time, zone entry)” value [3] was “rescued”.

From patent US20160030510A1, “METHODS OF TREATING ALZHEIMER'S DISEASE AND OTHER TAUOPATHIES WITH INHIBITORS OF MICROTUBULE AFFINITY REGULATING KINASE” (The Board of Trustees of the Leland Stanford Junior …, priority 2012, published 2016)
